Measured values: PMC5570892, “Indole-based perenosins as highly potent HCl transporters and potential anti-cancer agents” (Scientific Reports, 2017)

What was measured:
[1] = Cationophore coupled KCl efflux ISE assay (valinomycin or monensin); format: biochemical; conditions: perenosins 0.1 mol%, prodigiosin 0.01 mol%, monensin 0.1 mol%, pH 7.2
Experimental: Herein, we employed two recently reported complementary cationophore coupled assays[19] to unambiguously confirm H^+/Cl^− symport facilitated by perenosins is a strictly inseparable process. Briefly, unilamellar vesicles were prepared with an internal solution of KCl (300 mM) and an external solution of K2SO4 (150 mM), buffered to pH 7.2 with potassium phosphate salts (5 mM). The naturally occurring cationophores valinomycin and monensin were either added alone, or in combination with a perenosin and the resulting chloride efflux, driven by a large chloride concentration gradient, was monitored using a chloride ISE. […] In contrast, monensin functions as an electroneutral transporter. […]
Figure S130. […] The final chloride efflux reading was taken a t 9 mins and was used as the 100% chloride efflux value. […]
The lipid stock solution was diluted with the external buffer solution to a standard volume (5 mL), to afford a solution with a lipid concentration of 1 mM. […] The compounds were added as a DMSO solution (0.1 mol% (with respect to lipid), 10 μL) to start the experiment and the resulting chloride efflux was monitored using a chloride selective electrode over 5 minutes. After this time, detergent (50 μL of Triron X-100 (11 w%) in H2O:DMSO (7:1 v/v)) was added to lyse the vesicles and after 7 minutes a final chloride efflux reading was taken. […]

[2] = Stability in aqueous solution by UV-Vis; format: physicochemical; conditions: hexafluorophosphate buffered DMSO:water 50:50, pH 7.4, after 6 hours
Experimental: S7.1 Stability in Aqueous Solution
Stability studies were performed for the perenosins in aqueous solution using UV-Vis spectroscopy to probe the lifetime of compounds 1d and 2-8 over the course of the transport experiments. The receptors (10 μL, 25 mM) were added to a hexafluorophosphate buffered (100 mM) DMSO:water 50:50 solution (4990 μL) and the pH was adjusted to either 7.2 or 4.6 using hexafluorophosphoric acid. Spectra were collected at 1 minute intervals over a period of 30 minutes.
Figure S50. Absorbance spectra taken over 30 minutes of 1d (25 mM) in a hexafluorophosphate buffered (100 mM) DMSO:water 50:50 mixture. a) pH 7.2 b) pH 4.6 […]
Figure S51. Absorbance spectra taken over 30 minutes of 2 (25 mM) in a hexafluorophosphate […]
The spectra obtained at pH 7.2 for compounds 1d and 2-8 show no notable change in the […]
conditions. However, the spectra obtained at pH 4.6 for compounds 1d and 2-4 show a decreasing peak at ~400 nm corresponding to the perenosins, and an increasing peak at ~300 nm corresponding to the breakdown product (both are marked with an arrow). The change in spectra […]
Spectra were collected periodically over 72 hours to monitor the change in the UV -vis absorbance.
Figure S58. Absorbance spectra taken periodically over 72 hours of 1d (25 mM) in a hexafluorophosphate buffered (100 mM) DMSO:water 50:50 mixture at pH 7.4 […]

MDA-MB-231 cells = test: Annexin-V flow cytometric apoptosis assay; format: cell-based, human
Experimental: The specific late onset of affecting cell viability induced by perenosins is interesting, and to the best of our knowledge this phenomenon has not been observed for other anion transporters. […] It is known that synthetic transporters can disrupt ion homeostasis in cells and induce cell death via an apoptotic pathway, [22], [32], [63], [64].
S11.3 Apoptosis Evaluation through Annexin-V Assay
MDA-MB-231 cells (1x10^5 cells) were seeded in 6-well plates and, after 24 h, they were treated with […]
Afterwards, cells were detached, centrifuged at 300 g for 5 min and resuspended in 1 ml of 1X PBS-1% FBS. Then, 100 µl of cell suspension were mixed with Annexin-V kit buffer (1:1; Muse Annexin V & Dead Cell Assay, Merck Millipore, Merck KGaA, Darmstadt, Germany). After 20 min incubation at room temperature, cells were examined on the Muse™ Cell Analyzer (Merck Millipore). All the conditions were assessed in three independent experiments. Results are shown as the mean value ± S.D. and representative results are shown in the […]
Figure S154. Flow cytometry of MDA-MB-231 cells treated with IC50 concentrations of compound 2 and 6 for 48 and 72 hours plus 10 µM of compound 6 for 72 h. Axes show Annexin-V binding versus […]
(1 picture or pasted object on this page, not shown here)

SMILES | chloride efflux coupled to monensin [1] | solubility during 72 h stability study [2] | apoptosis induction (Annexin-V) (MDA-MB-231 cells; 10 µM) | apoptosis induction (Annexin-V) (MDA-MB-231 cells; at IC50 value, 48 h and 72 h)
CCCCCc1cc(/N=C/c2[nH]c3ccccc3c2C)c2[nH]ccc2c1 [Perenosin 7] | do not facilitate chloride transport |  |  | 
CCCCCc1cc2cc(C)cc(/N=C/c3[nH]c(C)c(CCCCC)c3C)c2[nH]1 [Perenosin 6] |  | poor solubility | increase in both early and late apoptotic cell populations | slight increase in apoptotic cells
CCCCCc1cc2cc(C)cc(/N=C/c3[nH]c(C)cc3C)c2[nH]1 [Perenosin 2] |  |  |  | clearly induces cell death by apoptosis
CCCCCc1cc2cc(C)cc(/N=C/c3[nH]c4ccccc4c3C)c2[nH]1 [Perenosin 8] | do not facilitate chloride transport |  |  | 
